# Source: patent publication US20230399368A1, “CARRIER PEPTIDE FRAGMENT AND USE THEREOF” (TOAGOSEI CO., LTD., priority 2020, published 2023)
# “Also recorded” adds a separate entry of the source. FAM = fluorescent dye FAM
# Tested on: HeLa cells
# Test: Evaluation of the cell membrane permeability by flow cytometry (FAM fluorescence) in HeLa cell culture
# Assay type: cell-based, human
# Conditions: for MFI (mean fluorescent intensity): 10 μM in culture medium, 0.5% DMSO, 20 hours incubation at 37° C., detector FL2, mean value of triplicate; for introduction of the fluorescent dye (FAM) into the cytoplasm, shift of the flow cytometry histogram on the X-axis (FIG. 1): compared with Example 3 (only FAM) or Example 2
# Experimental: The cell membrane permeability of sample 1 and sample 2 was evaluated using HeLa cells (an established cell line derived from human cervical cancer cells) as the eukaryotic cells.
# HeLa cells were cultured on DMEM (Dulbecco's modified Eagle's medium (Cat. No. 043-30085, from FUJIFILM Wako Pure Chemical Corporation)) containing 10% FBS (fetal bovine serum), which is a general culture medium.
# The HeLa cells attached to the culture plate were washed with PBS, a 0.25% trypsin/EDTA solution was then added, and incubation was carried out for 3 minutes at 37° C. After this incubation, the aforementioned DMEM containing 10% FBS was added and the trypsin was inactivated, and the cells were then sedimented by carrying out centrifugal separation for 5 minutes at 150×g. The supernatant produced by the centrifugal separation was removed, and the aforementioned DMEM containing 10% FBS was added to the sediment (cell pellet) to prepare a cell suspension containing approximately 1×10^5 cells/mL. The cells were seeded (approximately 2×10^5 cells/well) by the addition of 2 mL of this cell suspension to the wells of a commercial 6-well plate (Iwaki). The cells were attached to the well bottom by culture for 3 hours at 37° C. under the condition of 5% CO2. In order to perform the evaluation of the cell membrane permeability in triplicate, the cells were seeded to three wells for the test of Example 1 and the following procedure was performed on each well.
# The 2 mM sample solution 1 was then diluted with the aforementioned DMEM containing 10% FBS to prepare a sample solution 1 in which the sample 1 concentration was 20 μM. After the aforementioned 3-hour culture, 1 mL of the culture supernatant was removed from the well, followed by the addition to the well of 1 mL of the 20 μM sample solution 1 (i.e., the concentration of sample 1 in the culture medium in the well was brought to 10 μM and the DMSO concentration was brought to 0.5%). The cells were incubated for 20 hours at 37° C. under the condition of 5% CO2. After this 20-hour incubation, the culture supernatant was removed from the well and the cells in the well were washed twice with 1 mL PBS. 200 μL of a 0.25% trypsin/EDTA solution was then added to the well and incubation was carried out for 3 minutes at 37° C. After this incubation, the trypsin was inactivated by the addition of 400 μL of the aforementioned DMEM containing 10% FBS to the well, and the cells were subsequently recovered by transferring the cell suspension in the well to a tube. The well was then washed by the further addition of 600 μL PBS to the well. The cells that had remained in the well were recovered to the tube by transferring the PBS in the well to the tube. Centrifugal separation was run on this tube for 5 minutes using conditions of 4° C. and 210×g. After the centrifugal separation, the supernatant was removed, the sediment (cell pellet) was suspended (washed) with 1 mL of PBS, and centrifugal separation was carried out using the same conditions as before. After this procedure had been performed twice, the supernatant was removed to obtain cells (cell pellet) that had been cultured on a sample 1-containing culture medium.
# The cell membrane permeability of sample 1 was evaluated using the resulting cells (cell pellet) and a flow cytometer. An On-Chip Flow Cytometer (On-chip Biotechnologies Co., Ltd.) was used for the flow cytometer.
# For this analysis, the cell pellet obtained as described above was suspended in 50 μL PBS. To this suspension was added 50 μL of Sample Buffer 2× for use with the indicated flow cytometer to prepare a cell suspension for submission to analysis.
# Gating was performed using this flow cytometer based on forward scatter (FSC) and side scatter (SSC); the gating was set for the cell population that was the target of the analysis; and the fluorescent intensity was measured for the cell population within this gating. The analysis was performed so this cell population reached at least 5,000 or more. […]
Substance,MFI (mean fluorescent intensity),"introduction of the fluorescent dye (FAM) into the cytoplasm, shift of the flow cytometry histogram on the X-axis (FIG. 1) (10 μM, 20 hours incubation)","efficiency (cell membrane permeability) compared using the MFI, Example 1 versus Example 2 (10 μM, 20 hours incubation, ratio of MFI of Table 3)"
"5(6)-carboxyfluorescein [Example 3, reference compound]",6,,
"FAM-KKRTLRKNDRKKR-CONH2 ({FAM}-KKRTLRKNDRKKR-NH2) [Example 2, reference compound]",15.5,more efficiently introduced,
FAM-MAPRGFSCLLLLTSEIDLPVKRRA-COOH ({FAM}-MAPRGFSCLLLLTSEIDLPVKRRA-OH; listed as Homo sapiens) [Example 1],33.7,more efficiently introduced; also recorded: shifted more to the right on the X-axis than was the histogram for Example 2,approximately twice as high
